Test results: patent publication US20260216226A1, “TRIPLE COMBINED THERAPY INHIBITING EGFR, RAF1 AND STAT3 AGAINST PANCREATIC DUCTAL ADENOCARCINOMA” (FUNDACION DEL SECTOR PUBLICO ESTATAL CENTRO NACIONAL DE …, priority 2023, published 2026)

Experiments:
STAT3 [1] = conditions: Kras mutant pancreatic and colon cancer cells; cited from earlier work
[2] = test system: Egfr^lox/lox; Raf1^lox/lox PDAC cells; assay: Colony formation assay of NR PDAC cells infected with Adeno-GFP or Adeno-CRE; format: cell-based; conditions: 1 μM SD-36, 10 days
Protocol: FIG. 1. Colony formation assay of Egfr^lox/lox; Raf1^lox/lox PDAC cells infected with Adeno-GFP and Adeno-CRE viral particles in combination with small-hairpin RNA (shRNA) against STAT3 and Scr (empty vector) as control. 5000 cells were seeded for 10 days. B. Western blot analysis of the expression of EGFR, RAF1 and STAT3 of cell-lysate extracts. GAPDH was used as loading control.
(§1) FIG. 2. A. Colony formation assay of Egfr^lox/lox; Raf1^lox/lox PDAC cells infected with Adeno-GFP and Adeno-CRE viral particles in combination with treatment with 1 μM SD-36. 5000 cells were seeded for 10 days and culture medium was changed every day. B. Western blot analysis of the expression of STAT3 of cell-lysate extracts. GAPDH was used as loading control.
(§2) Silencing of Egfr, Raf1 and Stat3 was mediated with the lentiviral short hairpin RNA (shRNA) plasmids TRCN0000055218, TRCN0000012628 and TRCN0000071453 respectively. The non-target shRNA vector was used as control. The pharmacological treatments were conducted with the following agents: Afatinib (20 mg/kg, daily), SD-36 (50 mg/kg, daily).
The expression of STAT3 was targeted by shRNAs after genetic deletion of Egfr and Raf1 in NR cells by Adeno-GFP and Adeno-GFP-CRE infection. […]

[3] = test system: NR PDACs (tumors of big sizes); assay: Tumor growth monitored by ultrasound in genetically engineered mice; format: in vivo, mouse; conditions: NR triple: SD-36 50 mg/kg daily added to tamoxifen and Afatinib 20 mg/kg daily
Protocol: as §2
It was also included in the combined treatment Afatinib (a tyrosine receptor kinase inhibitor against EGFR) and SD-36 (PROTAC degrader against STAT3).

STAT3 [4] = target: T1, STAT3 (Mus musculus, UniProt P42227); assay: Western blot analysis of STAT3 expression in cell-lysate extracts; format: cell-based; conditions: NR PDAC cells treated with SD-36; GAPDH loading control
T1 construct: Western blot analysis of the expression of STAT3 of cell-lysate extracts; endogenous in cells; host or cells: Egfr lox/lox; Raf1 lox/lox PDAC (NR) tumor cells infected with Adeno-GFP or Adeno-CRE
Protocol: as §1
The expression of STAT3 was targeted by shRNAs after genetic deletion of Egfr and Raf1 in NR cells by Adeno-GFP and Adeno-GFP-CRE infection. […] NR tumor cells, previously infected with Adeno-GFP and Adeno-GFP-CRE virus to eliminate the EGFR and the Raf1 (floxed targets), were treated with SD-36 for 10 days in a colony formation assay. Elimination of the targets was very efficient.

[5] = test system: pancreatic ductal adenocarcinoma (PDAC); conditions: adjuvant treatment, patients with resectable disease; cited from earlier work

T1 sequence (P42227 whole entry): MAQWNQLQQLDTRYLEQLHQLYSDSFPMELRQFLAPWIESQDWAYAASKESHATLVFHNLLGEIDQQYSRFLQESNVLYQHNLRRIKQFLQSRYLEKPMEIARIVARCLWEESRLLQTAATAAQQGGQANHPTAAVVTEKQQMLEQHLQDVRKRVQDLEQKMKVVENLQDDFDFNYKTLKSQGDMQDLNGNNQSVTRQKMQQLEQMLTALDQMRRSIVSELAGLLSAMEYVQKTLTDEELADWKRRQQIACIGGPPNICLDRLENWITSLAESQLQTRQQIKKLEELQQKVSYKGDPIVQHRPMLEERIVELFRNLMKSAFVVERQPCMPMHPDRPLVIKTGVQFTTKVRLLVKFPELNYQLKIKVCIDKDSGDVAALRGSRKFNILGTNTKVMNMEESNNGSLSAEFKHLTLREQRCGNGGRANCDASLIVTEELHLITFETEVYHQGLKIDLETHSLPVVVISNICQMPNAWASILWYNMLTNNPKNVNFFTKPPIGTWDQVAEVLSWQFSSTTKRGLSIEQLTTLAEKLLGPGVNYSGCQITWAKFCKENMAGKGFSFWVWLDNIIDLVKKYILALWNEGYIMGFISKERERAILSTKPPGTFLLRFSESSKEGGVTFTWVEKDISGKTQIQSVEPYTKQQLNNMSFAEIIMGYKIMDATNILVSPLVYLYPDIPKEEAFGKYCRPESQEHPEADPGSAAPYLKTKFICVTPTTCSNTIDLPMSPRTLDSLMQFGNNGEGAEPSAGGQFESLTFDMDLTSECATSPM

For Cn1cnc2c(F)c(Nc3ccc(Br)cc3Cl)c(C(=O)NOCCO)cc21 [AZD6244], the STAT3 activation (STAT3 [1]) is given as “significantly activated”.

In the case of COc1cccc(-c2cc(=O)c3ccccc3o2)c1N [PD98059], the STAT3 activation (STAT3 [1]) is given as “significantly activated”.

For NC(=O)CC[C@H](NC(=O)[C@@H]1CC[C@@H]2CCN(C(=O)CCCCCC#Cc3cccc4c3CN(C3CCC(=O)NC3=O)C4=O)C[C@H](NC(=O)c3cc4cc(C(F)(F)P(=O)(O)O)ccc4[nH]3)C(=O)N21)C(=O)NC(c1ccccc1)c1ccccc1 (stereo partly shown) [SD-36], the “growth of NR cells that express Egfr and Raf1 (toxicity)” value ([2]; Adeno-GFP infected NR cells, versus vehicle control) was “grew similarly as the vehicle control”, the “colony formation / cell death of NR tumor cells” value ([2]; NR cells after deletion of Egfr and Raf1 (Adeno-CRE)) was “cell death of NR tumor cells” and the tumor growth [3] was “significant delay and slight reduction of tumor growth”. For the same compound, the STAT3 degradation (STAT3 [4]) was “effectively degraded STAT3”.

In the case of FOLFIRINOX, the “median overall survival (OS)” value [5] is listed as 54 months.
